Measured values as given in US20220409629A1, “BENZODIAZEPINE DERIVATIVES FOR TREATING A RESPIRATORY SYNCYTIAL VIRUS (RSV) INFECTION” (priority 2019, published 2022).

Key:
RSV A2 = assay: RSV plaque reduction assay; assay type: cell-based, respiratory syncytial virus (RSV); settings: human respiratory syncytial virus, HepG2; Hep-G2 cells, RSV A2, mean of at least two experiments
Method: Compounds were subjected to RSV plaque reduction assays according to the following protocol.
Hep-G2 cells (ECACC, 85011430) were passaged in flasks and seeded in 24-well plates in DMEM containing antibiotics and supplemented with 10% FBS. During inoculation and subsequent incubation, cells were cultured in DMEM containing 2% FBS. 100 plaque forming unit/well of RSV (RSV A2 ECACC, 0709161v) was mixed with eight serial dilutions of compound. Subsequently, 100 μL of the virus/compound mixtures was added to confluent Hep-G2 cell monolayers. The cells and virus/compound mixtures were incubated at 37° C. in a humidified 5% CO2 incubator for 2 h prior to removal of the inoculum and addition of 1 mL of overlay (DMEM containing 2% FBS and 0.8% CMC) containing compound dilutions. The cells and were incubated at 37° C. in a humidified 5% CO2 incubator for 2 days.
Cells were washed with PBS before adding 75/25% v/v EtOH/MeOH, for 3 min. Fixative was removed and plates were washed with PBS. A pre-titrated amount of the primary antibody was added in 200 μL PBS/2% milk powder, and plates incubated for 90 min at 37° C. The plates were washed 3 times with PBS/0.05% Tween20 before addition of rabbit anti-goat horse radish peroxidase in 200 μL PBS/2% milk powder, and incubated for 1 h at 37° C. Following three wash steps with PBS/0.05% Tween20, 200 μL ready-to-use TrueBlue was added and plates were incubated at rt for 10-15 min before washing with water. After removal of water, plates were air-dried in the dark.
Plates were scanned and analysed using the Immunospot S6 Macro analyser, which is equipped with BioSpot analysis software for counting immunostained plaques (virospots). Plaque counts were used to calculate % infection relative to the mean of the plaque count in the virus control wells for RSV. The EC50 value was calculated as 50% reduction in signal, respectively, by interpolation of inhibition curves fitted with a 4-parameter nonlinear regression with a variable slope in Dotmatics. Plaque EC50 and cell toxicity CC50 values are a mean of at least two experiments and figures are rounded to whole units.

Cell cytotoxicity CC50 = assay type: cell-based; settings: human; mean of at least two experiments
[1] = Liver microsomal stability, rat; assay type: in vitro ADME; settings: pH 7.4; rat liver microsomes, 0.5 mg/mL protein, 1 μM compound, NADPH; >80% remaining at 45 min denoted >140; read-out: Liver Microsomal Stability: t1/2 (min); rat
Method: (§1) Compounds were subjected to the following assays to investigate liver microsomal stability, permeability and plasma protein binding.
(§2) Pooled liver microsomes were purchased from a reputable commercial supplier and stored at −80° C. prior to use. Microsomes (final protein concentration 0.5 mg/mL), 0.1 M phosphate buffer pH 7.4 and test compound (final substrate concentration 1 μM; final DMSO concentration 0.25%) were pre-incubated at 37° C. prior to the addition of NADPH (final concentration 1 mM) to initiate the reaction. The final incubation volume was 50 μL. A control incubation was included for each compound tested where 0.1 M phosphate buffer pH 7.4 was added instead of NADPH (minus NADPH). Two control compounds were included with each species. All incubations were performed singularly for each test compound. Each compound was incubated for 0, 5, 15, 30 and 45 min. The control (minus NADPH) was incubated for 45 min only. The reactions were stopped by transferring incubate into acetonitrile at the appropriate time points, in a 1:3 ratio. The termination plates are centrifuged at 3,000 rpm for 20 min at 4° C. to precipitate the protein. Following protein precipitation, the sample supernatants were combined in cassettes of up to 4 compounds, internal standard added, and samples analysed by LC-MS/MS. From a plot of ln peak area ratio (compound peak area/internal standard peak area) against time, the gradient of the line was determined. Subsequently, half-life (t1/2) and intrinsic clearance (CLint) were calculated.

[2] = Liver microsomal stability, dog; assay type: in vitro ADME; settings: pH 7.4; dog liver microsomes, 0.5 mg/mL protein, 1 μM compound, NADPH; >80% remaining at 45 min denoted >140; read-out: Liver Microsomal Stability: t1/2 (min); dog
Method: as §1, §2

[3] = Liver microsomal stability, human; assay type: in vitro ADME; settings: pH 7.4; human liver microsomes, 0.5 mg/mL protein, 1 μM compound, NADPH; >80% remaining at 45 min denoted >140; read-out: Liver Microsomal Stability: t1/2 (min); human
Method: as §1, §2

Structure (SMILES) | EC50 (RSV A2) | CC50 (Cell cytotoxicity CC50) | half-life [1] | half-life [2] | half-life [3]
CCNc1cnc(-c2c(C(=O)N[C@H]3N=C(c4ccccc4)c4cccc(F)c4NC3=O)cnn2CC)c(F)c1 [Example 13, 1-Ethyl-5-[5-(ethylamino)-3-fluoropyridin-2-yl]-N-[(3S)-9-fluoro-2-oxo-5-phenyl-1,3-dihydro-1,4-benzodiazepin-3-yl]pyrazole-4-carboxamide] | 68 nM | > 25000 nM | 9.6 min | 35.6 min | 42.9 min
CCNc1ccc(-c2c(C(=O)N[C@H]3N=C(c4ccccc4)c4ccccc4NC3=O)cnn2C2CC2)c(F)n1 [Example 14, 1-Cyclopropyl-5-[6-(ethylamino)-2-fluoropyridin-3-yl]-N-[(3S)-2-oxo-5-phenyl-1,3-dihydro-1,4-benzodiazepin-3-yl]pyrazole-4-carboxamide] | 95 nM | > 25000 nM | 37.9 min | 59.3 min | 93.7 min
O=C(N[C@H]1N=C(c2ccccc2)c2ccccc2NC1=O)c1cnn(C2CC2)c1-c1ccc(NC2CC2)nc1F [Example 15, 1-Cyclopropyl-5-[6-(cyclopropylamino)-2-fluoropyridin-3-yl]-N-[(3S)-2-oxo-5-phenyl-1,3-dihydro-1,4-benzodiazepin-3-yl]pyrazole-4-carboxamide] | 51 nM | > 25000 nM | 69.8 min | 57.7 min | 72.3 min
CC(C)n1ncc(C(=O)N[C@H]2N=C(c3ccccc3)c3ccccc3NC2=O)c1-c1ccc(NC2CC2)nc1F [Example 16, 5-[6-(Cyclopropylamino)-2-fluoropyridin-3-yl]-N-[(3S)-2-oxo-5-phenyl-1,3-dihydro-1,4-benzodiazepin-3-yl]-1-propan-2-ylpyrazole-4-carboxamide] | 50 nM | > 25000 nM | 72.7 min | 22.2 min | 50.6 min
CCn1ncc(C(=O)N[C@H]2N=C(c3ccccc3)c3cccc(F)c3NC2=O)c1-c1ncc(NC(C)C)cc1F [Example 17, 1-Ethyl-N-[(3S)-9-fluoro-2-oxo-5-phenyl-1,3-dihydro-1,4-benzodiazepin-3-yl]-5-[3-fluoro-5-(propan-2-ylamino)pyridin-2-yl]pyrazole-4-carboxamide] | 52 nM | > 25000 nM | 318 min | 68.9 min | 120 min
O=C(N[C@H]1N=C(c2ccccc2)c2ccccc2NC1=O)c1cnn(C2COC2)c1-c1ccc(NC2CC2)nc1F [Example 18, 5-[6-(Cyclopropylamino)-2-fluoropyridin-3-yl]-1-(oxetan-3-yl)-N-[(3S)-2-oxo-5-phenyl-1,3-dihydro-1,4-benzodiazepin-3-yl]pyrazole-4-carboxamide] | 83 nM | > 25000 nM | 93.5 min | 149 min | 144 min
CCCNc1ccc(-c2nn(CC)cc2C(=O)N[C@H]2N=C(c3ccccc3)c3ccccc3NC2=O)c(F)n1 [Example 27, 1-Ethyl-3-[2-fluoro-6-(propylamino)pyridin-3-yl]-N-[(3S)-2-oxo-5-phenyl-1,3-dihydro-1,4-benzodiazepin-3-yl]pyrazole-4-carboxamide] | 57 nM | > 25000 nM | 23.9 min | 12.6 min | 43.1 min
CCCNc1ccc(-c2nn(CC)cc2C(=O)N[C@H]2N=C(c3ccccc3)c3cccc(F)c3NC2=O)c(F)n1 [Example 28, 1-Ethyl-N-[(3S)-9-fluoro-2-oxo-5-phenyl-1,3-dihydro-1,4-benzodiazepin-3-yl]-3-[2-fluoro-6-(propylamino)pyridin-3-yl]pyrazole-4-carboxamide] | 39 nM | > 25000 nM | 22.7 min | 30.8 min | 41 min
CC(C)(C)n1cc(C(=O)N[C@H]2N=C(c3ccccc3)c3ccccc3NC2=O)c(-c2ccc(NC3CC3)nc2F)n1 [Example 29, 1-tert-butyl-3-[6-(cyclopropylamino)-2-fluoropyridin-3-yl]-N-[(3S)-2-oxo-5-phenyl-1,3-dihydro-1,4-benzodiazepin-3-yl]pyrazole-4-carboxamide] | 54 nM | > 25000 nM | 45.2 min | 44 min | 73.9 min
O=C(N[C@H]1N=C(c2ccccc2)c2ccccc2NC1=O)c1cn(C2CCOCC2)nc1-c1ccc(NC2CC2)nc1F [Example 31, 3-[6-(Cyclopropylamino)-2-fluoropyridin-3-yl]-1-(oxan-4-yl)-N-[(3S)-2-oxo-5-phenyl-1,3-dihydro-1,4-benzodiazepin-3-yl]pyrazole-4-carboxamide] | 55 nM | > 25000 nM | 36.3 min | 65.7 min | 116 min
O=C(N[C@H]1N=C(c2ccccc2)c2cccc(F)c2NC1=O)c1cn(CC(F)(F)F)nc1-c1ccc(NC2CC2)nc1F [Example 33, 3-[6-(Cyclopropylamino)-2-fluoropyridin-3-yl]-N-[(3S)-9-fluoro-2-oxo-5-phenyl-2,3-dihydro-1H-1,4-benzodiazepin-3-yl]-1-(2,2,2-trifluoroethyl)-1H-pyrazole-4-carboxamide] | 80 nM | > 25000 nM | 56 min | 81 min | 80.3 min
O=C(N[C@H]1N=C(c2ccccc2)c2ccccc2NC1=O)c1cn(C2CCC(F)(F)CC2)nc1-c1ccc(NC2CC2)nc1F [Example 34, 3-[6-(Cyclopropylamino)-2-fluoropyridin-3-yl]-1-(4,4-difluorocyclohexyl)-N-[(3S)-2-oxo-5-phenyl-1,3-dihydro-1,4-benzodiazepin-3-yl]pyrazole-4-carboxamide] | 96 nM | > 25000 nM | 121 min | 85.8 min | 119 min
O=C(N[C@H]1N=C(c2ccccc2)c2cccc(F)c2NC1=O)c1cn(C2CCC(F)(F)CC2)nc1-c1ccc(NC2CC2)nc1F [Example 35, 3-[6-(Cyclopropylamino)-2-fluoropyridin-3-yl]-1-(4,4-difluorocyclohexyl)-N-[(3S)-9-fluoro-2-oxo-5-phenyl-1,3-dihydro-1,4-benzodiazepin-3-yl]pyrazole-4-carboxamide] | 60 nM | > 25000 nM | 181 min | 90.9 min | 164 min
CCn1ncc(C(=O)N[C@H]2N=C(c3ccccc3)c3ccccc3NC2=O)c1-c1ncc(NC)cc1F [Example 38, 1-Ethyl-5-(3-fluoro-5-(methylamino)pyridin-2-yl)-N—((S)-2-oxo-5-phenyl-2,3-dihydro-1H-benzo[e][1,4]diazepin-3-yl)-1H-pyrazole-4-carboxamide] | 105 nM | > 25000 nM | 42 min | 48.6 min | 35.2 min
CCNc1cnc(-c2c(C(=O)N[C@H]3N=C(c4ccccc4)c4ccccc4NC3=O)cnn2CC)c(F)c1 [Example 39, 1-Ethyl-5-[5-(ethylamino)-3-fluoropyridin-2-yl]-N-[(3S)-2-oxo-5-phenyl-1,3-dihydro-1,4-benzodiazepin-3-yl]pyrazole-4-carboxamide] | 62 nM | > 25000 nM | 21.4 min | 45.7 min | 62 min
